Legend:
Experiment in all cases: Bliss excess, mean over the matrix (fraction); higher = more synergy
[1] = system: HCT-116 (Colorectal Carcinoma)
Method in brief: (§1)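 Cell lines in DMEM/F12 or RPMI with 10% FBS were plated in 1536-well plates, held 24 hours at 37°C, 5% CO2, then given two-drug dose matrices for 72 hours (DMSO typically 0.2%). Viability was read by CellTiter-Glo 2.0 luminescence and scaled as inhibition from 0 (vehicle wells) to 1 (blank wells). Combination Emax is the second-highest inhibition in the matrix; Bliss excess is observed combination effect minus expected EA + EB − EA·EB, EA and EB being single-agent effects.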

[2] = system: WSU-DLCL2 (B-Cell Non-Hodgkin's Lymphoma)
Method in brief: as §1

SK-MEL-1 (Melanoma) = system: SK-MEL-1 (Melanoma)
Method in brief: as §1

H4 (Low Grade Glioma) = system: H4 (Low Grade Glioma)
Method in brief: as §1

[3] = system: SW948 (Colorectal Carcinoma)
Method in brief: as §1

D-392MG (Glioblastoma) = system: D-392MG (Glioblastoma)
Method in brief: as §1

[4] = system: P31-FUJ (Acute Myeloid Leukemia)
Method in brief: as §1

[5] = system: SK-UT-1 (Other Solid Carcinomas)
Method in brief: as §1

[6] = system: YT (Other Blood Carcinomas)
Method in brief: as §1

EW-22 (Ewing's Sarcoma) = system: EW-22 (Ewing's Sarcoma)
Method in brief: as §1

[7] = system: MEG-01 (Chronic Myelogenous Leukemia)
Method in brief: as §1

[8] = system: SLVL (B-Cell Non-Hodgkin's Lymphoma)
Method in brief: as §1

[9] = system: DOK (Oral Cavity Carcinoma)
Method in brief: as §1

MSTO-211H (Mesothelioma) = system: MSTO-211H (Mesothelioma)
Method in brief: as §1

[10] = system: CAL-39 (Other Solid Carcinomas)
Method in brief: as §1

[11] = system: NOMO-1 (Acute Myeloid Leukemia)
Method in brief: as §1

[12] = system: TC-YIK (Other Solid Carcinomas)
Method in brief: as §1

[13] = system: SW48 (Colorectal Carcinoma)
Method in brief: as §1

[14] = system: BICR78 (Oral Cavity Carcinoma)
Method in brief: as §1

CS1 (Chondrosarcoma) = system: CS1 (Chondrosarcoma)
Method in brief: as §1

| SMILES | Bliss excess [1] | Bliss excess [2] | Bliss excess (SK-MEL-1 (Melanoma)) | Bliss excess (H4 (Low Grade Glioma)) | Bliss excess [3] | Bliss excess (D-392MG (Glioblastoma)) | Bliss excess [4] | Bliss excess [5] | Bliss excess [6] | Bliss excess (EW-22 (Ewing's Sarcoma)) | Bliss excess [7] | Bliss excess [8] | Bliss excess [9] | Bliss excess (MSTO-211H (Mesothelioma)) | Bliss excess [10] | Bliss excess [11] | Bliss excess [12] | Bliss excess [13] | Bliss excess [14] | Bliss excess (CS1 (Chondrosarcoma)) |
| --- | --- | --- | --- | --- | --- | --- | --- | --- | --- | --- | --- | --- | --- | --- | --- | --- | --- | --- | --- | --- |
| C=CCn1c(=O)c2cnc(Nc3ccc(N4CCN(C)CC4)cc3)nc2n1-c1cccc(C(C)(C)O)n1 [AZD1775] + CCc1c2c(nc3ccc(O)cc13)-c1cc3c(c(=O)n1C2)COC(=O)[C@]3(O)CC [SN-38] (first compound max 1 µM, partner max 0.3 µM) | -0.0302 | 0.003 | 0.0154 | 0.015 | 0.141 | -0.0704 | 0.0049 | -0.032 | -0.0418 | -0.0286 | -0.0251 | -0.0701 | -0.0096 | -0.0619 | -0.0225 | -0.0208 | -0.0451 | -0.0052 | -0.0403 | -0.0705 |
| C=CCn1c(=O)c2cnc(Nc3ccc(N4CCN(C)CC4)cc3)nc2n1-c1cccc(C(C)(C)O)n1 [AZD1775] + Nc1ccn([C@@H]2O[C@H](CO)[C@@H](O)C2(F)F)c(=O)n1 [Gemcitabine] (first compound max 1 µM, partner max 0.3 µM) | -0.0342 | 0.0694 | -0.0469 | -0.0148 | 0.104 | 0.013 | 0.0797 | -0.0194 | 0.0337 | -0.0431 | -0.0001 | -0.0357 | -0.0216 | 0.0226 | 0.0328 | 0.0485 | -0.0642 | 0.0828 | 0.0412 | -0.0007 |
| CN(CCO)CC[C@H](CSc1ccccc1)Nc1ccc(S(=O)(=O)NC(=O)c2ccc(N3CCC([C@@H](O)c4ccccc4-c4ccc(Cl)cc4)CC3)cc2)cc1S(=O)(=O)C(F)(F)F [AZD4320] + CC(=O)O[C@H]1C(=O)[C@@]2(C)[C@H]([C@H](OC(=O)c3ccccc3)[C@]3(O)C[C@H](OC(=O)[C@H](O)[C@@H](NC(=O)c4ccccc4)c4ccccc4)C(C)=C1C3(C)C)[C@]1(OC(C)=O)CO[C@@H]1C[C@@H]2O [Paclitaxel] (first compound max 1 µM, 7x7, partner max 3 µM) | 0.0182 | -0.0101 | 0.0354 | -0.0229 | -0.0074 | 0.129 | -0.0004 | -0.0007 | -0.0079 | 0.0397 | -0.0006 | 0.032 | 0.0565 | 0.105 | 0.0298 | -0.0101 | 0.0183 | -0.003 | 0.0354 | 0.041 |
| CN(CCO)CC[C@H](CSc1ccccc1)Nc1ccc(S(=O)(=O)NC(=O)c2ccc(N3CCC([C@@H](O)c4ccccc4-c4ccc(Cl)cc4)CC3)cc2)cc1S(=O)(=O)C(F)(F)F [AZD4320] + CS(=O)(=O)CCNCc1ccc(-c2ccc3ncnc(Nc4ccc(OCc5cccc(F)c5)c(Cl)c4)c3c2)o1 [Lapatinib] (first compound max 1 µM, 7x7, partner max 10 µM) | 0.0085 | 0.203 | -0.0444 | -0.0113 | 0.0049 | -0.0269 | 0.109 | 0.006 | 0.0643 | 0.0967 | 0.103 | 0.0675 | 0.0402 | 0.0275 | 0.0372 | 0.0709 | 0.0065 | 0.14 | 0.0251 | 0.0095 |
| CN(CCO)CC[C@H](CSc1ccccc1)Nc1ccc(S(=O)(=O)NC(=O)c2ccc(N3CCC([C@@H](O)c4ccccc4-c4ccc(Cl)cc4)CC3)cc2)cc1S(=O)(=O)C(F)(F)F [AZD4320] + Nc1ccn([C@@H]2O[C@H](CO)[C@@H](O)C2(F)F)c(=O)n1 [Gemcitabine] (first compound max 1 µM, 7x7, partner max 0.3 µM) | 0.0111 | 0.0032 | -0.0689 | 0.0194 | 0.0114 | 0.0921 | -0.0492 | 0.0159 | -0.0591 | 0.0287 | 0.0059 | -0.0135 | 0.0797 | 0.0099 | 0.0174 | 0.0208 | -0.0091 | 0.0089 | -0.0581 | 0.0187 |
| Cc1c2c(nn1C)CSCc1cc(n(C)n1)CSc1cc(c3ccccc3c1)OCCCc1c(C(=O)O)n(C)c3c-2c(Cl)ccc13 [AZD5991] + CC(=O)O[C@H]1C(=O)[C@@]2(C)[C@H]([C@H](OC(=O)c3ccccc3)[C@]3(O)C[C@H](OC(=O)[C@H](O)[C@@H](NC(=O)c4ccccc4)c4ccccc4)C(C)=C1C3(C)C)[C@]1(OC(C)=O)CO[C@@H]1C[C@@H]2O [Paclitaxel] (first compound max 1 µM, 7x7, partner max 3 µM) | -0.0211 | -0.0151 | -0.0045 | 0.0003 | -0.0421 | 0.046 | -0.0253 | 0.008 | -0.0159 | -0.0122 | 0.12 | -0.0181 | -0.0004 | 0.0035 | -0.0154 | -0.0215 | -0.0709 | -0.0091 | -0.0412 | -0.012 |
| Cc1c2c(nn1C)CSCc1cc(n(C)n1)CSc1cc(c3ccccc3c1)OCCCc1c(C(=O)O)n(C)c3c-2c(Cl)ccc13 [AZD5991] + CS(=O)(=O)CCNCc1ccc(-c2ccc3ncnc(Nc4ccc(OCc5cccc(F)c5)c(Cl)c4)c3c2)o1 [Lapatinib] (first compound max 1 µM, 7x7, partner max 10 µM) | -0.0365 | 0.0601 | 0.026 | 0.0407 | -0.0171 | -0.0727 | -0.0445 | 0.032 | 0.0331 | -0.0028 | -0.0318 | 0.0502 | 0.111 | 0.0121 | 0.0372 | -0.0873 | -0.0418 | 0.0213 | -0.0065 | -0.0458 |
| Cc1c2c(nn1C)CSCc1cc(n(C)n1)CSc1cc(c3ccccc3c1)OCCCc1c(C(=O)O)n(C)c3c-2c(Cl)ccc13 [AZD5991] + Nc1ccn([C@@H]2O[C@H](CO)[C@@H](O)C2(F)F)c(=O)n1 [Gemcitabine] (first compound max 1 µM, 7x7, partner max 0.3 µM) | -0.0854 | 0.0128 | -0.0226 | -0.0393 | 0.0016 | -0.112 | 0.0115 | -0.0367 | 0.0413 | -0.0071 | -0.0412 | -0.014 | -0.0008 | -0.0131 | 0.0269 | -0.0065 | -0.0315 | -0.0377 | -0.0851 | -0.0411 |
| C[C@@H]1COCCN1c1cc(C2([S@](C)(=N)=O)CC2)nc(-c2ccnc3[nH]ccc23)n1 [AZD6738] + C1CC(C1)(C(=O)[O-])C(=O)[O-].N.N.[Pt+2] [Carboplatin] (first compound max 10 µM, 7x7, partner max 10 µM) | 0.0014 | 0.0217 | -0.048 | 0.0025 | -0.0659 | -0.0311 | -0.0078 | -0.0214 | -0.0397 | -0.0301 | -0.0513 | -0.0419 | 0.0086 | -0.0319 | -0.0128 | -0.0037 | -0.0631 | -0.0577 | -0.0459 | -0.0674 |
| C[C@@H]1COCCN1c1cc(C2([S@](C)(=N)=O)CC2)nc(-c2ccnc3[nH]ccc23)n1 [AZD6738] + Nc1ccn([C@@H]2O[C@H](CO)[C@@H](O)C2(F)F)c(=O)n1 [Gemcitabine] (first compound max 10 µM, 7x7, partner max 0.3 µM) | 0.0252 | 0.0721 | 0.0174 | 0.0184 | 0.0448 | -0.0224 | 0.0545 | 0.0317 | 0.124 | 0.0068 | -0.0258 | -0.0284 | 0.0785 | 0.0098 | 0.0523 | 0.058 | -0.0046 | -0.0329 | 0.0298 | 0.075 |
| Cc1cc2ncnn2cc1Nc1ncc2c(n1)n(C1CCOCC1)c(=O)n2C [AZD7648] + COc1cc([C@@H]2c3cc4c(cc3[C@@H](O[C@@H]3O[C@@H]5CO[C@@H](C)O[C@H]5[C@H](O)[C@H]3O)[C@H]3COC(=O)[C@H]23)OCO4)cc(OC)c1O [Etoposide] (first compound max 10 µM, 7x7, partner max 10 µM) | 0.13 | 0.185 | 0.0651 | 0.0976 | -0.0456 | 0.0658 | 0.101 | 0.117 | 0.0495 | 0.112 | 0.102 | 0.0824 | 0.109 | 0.0624 | 0.0364 | 0.113 | 0.0886 | 0.0487 | 0.0789 | 0.017 |
| C[C@@H](Nc1cc(F)cc(F)c1)c1cc(C(=O)N(C)C)cc2c(=O)cc(N3CCOCC3)oc12 [AZD8186] + C1CN(CCC1(C(=O)N[C@@H](CCO)C2=CC=C(C=C2)Cl)N)C3=NC=NC4=C3C=CN4 [AZD5363] (first compound max 10 µM, 7x7, partner max 10 µM) | -0.0362 | -0.0155 | -0.039 | -0.0049 | 0.0414 | -0.122 | -0.03 | 0.0224 | -0.0175 | -0.0197 | -0.0906 | 0.0553 | -0.0231 | 0.0272 | 0.0492 | 0.0385 | -0.0292 | -0.024 | -0.0269 | -0.0711 |
| C[C@@H](Nc1cc(F)cc(F)c1)c1cc(C(=O)N(C)C)cc2c(=O)cc(N3CCOCC3)oc12 [AZD8186] + CC(=O)c1c(C)c2cnc(Nc3ccc(N4CCNCC4)cn3)nc2n(C2CCCC2)c1=O [Palbociclib] (first compound max 10 µM, 7x7, partner max 10 µM) | 0.0488 | 0.0762 | 0.0098 | 0.122 | -0.0457 | -0.0827 | -0.0164 | 0.008 | 0.0407 | 0.05 | -0.0585 | 0.0035 | 0.0079 | 0.135 | 0.125 | 0.0983 | 0.036 | 0.0715 | -0.0525 | 0.0326 |
| N#Cc1cnc(Nc2cc(NC[C@H]3CNCCO3)c(C(F)(F)F)cn2)cn1 [SRA737] + CCc1c2c(nc3ccc(O)cc13)-c1cc3c(c(=O)n1C2)COC(=O)[C@]3(O)CC [SN-38] (first compound max 10 µM, 7x7, partner max 0.3 µM) | -0.0306 | 0.0055 |  | -0.0029 | 0.154 | -0.0555 | -0.0541 | -0.0033 | -0.0677 | -0.0592 | 0.0468 | -0.0909 | -0.0531 | -0.024 | -0.0157 | -0.039 | -0.0041 | -0.0411 | -0.0015 | -0.0579 |
